Test: solvent given as SMILES

With Cn1c(/C=C/c2ccc(/C=C/c3nc4ccccc4[nH]3)cc2)[n+](C)c2ccccc21 the absorption maximum (in C1CCOC1) was 363 nm, the absorption maximum (in CC#N) was 377 nm and the absorption maximum (in CC(C)=O) was 386 nm. The absorption maximum (in CN(C)C=O) was 389 nm, the absorption maximum (in CO) was 391 nm and the absorption maximum (in CS(C)=O) was 392 nm. The absorption maximum (in O) was 376 nm.
CCCCCCN1C(=O)c2cccc3cc(/N=C\c4cnc5ccccc5c4)cc(c23)C1=O showed an absorption maximum (in ClC(Cl)Cl) of 328 nm.
With CCCCCCCCN1C(=O)c2ccc3c4c(-c5ccc(-n6c7ccccc7c7ccccc76)cc5)cc5c6c(cc(-c7ccc(-n8c9ccccc9c9ccccc98)cc7)c(c7ccc(c2c37)C1=O)c64)C(=O)N(CCCCCCCC)C5=O the absorption maximum (in ClC(Cl)Cl) was 551 nm.
Work on C#CCNC1=C2C=C(c3cc4n(c3)[B-](F)(F)[N+]3=CC=CC3=C4c3c(C)cc(C)cc3C)C(C)=[N+]2[B-](F)(F)n2c(C)ccc21 yielded an absorption maximum (in C1CCCCC1) of 568 nm and an absorption maximum (in CCOC(C)=O) of 568 nm.
With CCCc1ccc2c(c1)cc1n2B2c3c4c-1cccc4cc1cccc(c31)-c1cc3cc(CCC)ccc3n12 the absorption maximum (in C1CCOC1) was 537 nm.
Work on CC(C)c1cccc(C(C)C)c1N1C(=O)c2cccc3c(Oc4ccc(C(C)(C)c5ccccc5)cc4)ccc(c23)C1=O yielded an absorption maximum (in ClCCl) of 365 nm.
Work on c1ccc(-c2nc(-c3cccs3)[nH]c2-c2ccccc2)cc1 yielded an absorption maximum (in CC#N) of 317 nm.
Work on Cc1ccccc1 yielded an absorption maximum (in C1CCCCC1) of 256.48 nm.
In the case of CCC1(CC)c2ccccc2-c2c1c1c(c3c2C(CC)(CC)c2cc(/C=C/c4cccs4)ccc2-3)C(CC)(CC)c2cc(/C=C/c3cccs3)ccc2-1, the absorption maximum (in C1CCOC1) is reported as 382 nm.
Molecule COc1ccc(/N=N/c2c(O)c3ccccc3n(C)c2=O)c(S(=O)(=O)O)c1 has an absorption maximum (in C1CCOC1) of 449 nm, an absorption maximum (in CC(C)=O) of 451 nm and an absorption maximum (in CCOC(C)=O) of 446 nm. It also gave an absorption maximum (in CO) of 448 nm, an absorption maximum (in CS(C)=O) of 447 nm and an absorption maximum (in Cc1ccccc1) of 449 nm. The absorption maximum (in ClCCl) was 451 nm and the absorption maximum (in O) was 447 nm.
CN(C)c1ccc(C(=O)Nc2ccc(F)cc2)cc1 showed an absorption maximum (in C1CCCCC1) of 307 nm, an absorption maximum (in C1CCOC1) of 311 nm and an absorption maximum (in CC#N) of 314 nm. It also gave an absorption maximum (in CCOCC) of 307 nm.
CCCCCCC1(CCCCCC)c2cc(-c3nc(-c4ccc5c(c4)C(CCCCCC)(CCCCCC)c4cc(N6c7ccccc7Sc7ccccc76)ccc4-5)nc(-c4ccc5c(c4)C(CCCCCC)(CCCCCC)c4cc(N6c7ccccc7Sc7ccccc76)ccc4-5)n3)ccc2-c2ccc(N3c4ccccc4Sc4ccccc43)cc21 gave an absorption maximum (in C1CCOC1) of 400 nm.
In the case of CC(C)CCCN1c2ccccc2CCc2ccccc21, the absorption maximum (in CC#N) is reported as 276 nm and the absorption maximum (in CO) is reported as 276 nm.
CN(C)c1ccc2c(-c3ccc(C(=O)[O-])cc3C(=O)[O-])c3ccc(=[N+](C)C)cc-3oc2c1 showed an absorption maximum (in CCO) of 540 nm and an absorption maximum (in O) of 548 nm.
With C#Cc1cccc2ccccc12 the absorption maximum (in C1CCCCC1) was 310 nm, the absorption maximum (in CC#N) was 306 nm and the absorption maximum (in CO) was 309 nm. It also gave an absorption maximum (in ClCCl) of 312 nm.
With CCCn1c(-c2cc(-c3nc4ccccc4n3CCC)cc(-c3nc4ccccc4n3CCC)c2)nc2ccccc21 the absorption maximum (in CS(C)=O) was 301.5 nm.
In the case of Cc1cc(O)c(C(=O)/C=C/c2ccccc2)c(=O)o1, the absorption maximum (in CC#N) is reported as 356 nm and the absorption maximum (in ClCCl) is reported as 358 nm.
Work on c1cnc(-c2c3ccccc3c(-c3cncnc3)c3ccccc23)nc1 yielded an absorption maximum (in CCO) of 391 nm and an absorption maximum (in ClCCl) of 394 nm.
Work on COc1c2ccccc2c(OC)c2c(C#Cc3ccccc3)c3cc4sccc4cc3c(C#Cc3ccccc3)c12 yielded an absorption maximum (in ClCCl) of 656 nm.
In the case of O=c1c2cc(F)ccc2nc2n1[B-](F)(F)[n+]1ccccc1-2, the absorption maximum (in CC#N) is reported as 337 nm and the absorption maximum (in ClCCl) is reported as 350 nm.
For COC(=O)c1c2ccccc2nc2ccccc12, the absorption maximum (in C1CCOC1) was 361 nm, the absorption maximum (in C1COCCO1) was 361 nm and the absorption maximum (in CC#N) was 360 nm. For the same molecule, the absorption maximum (in CCCCCO) was 361 nm, the absorption maximum (in CCCCO) was 360 nm and the absorption maximum (in CCCO) was 361 nm. The absorption maximum (in CCO) was 360 nm, the absorption maximum (in CO) was 360 nm and the absorption maximum (in COCCOC) was 361 nm. For the same molecule, the absorption maximum (in ClC(Cl)Cl) was 361 nm, the absorption maximum (in ClCCl) was 361 nm and the absorption maximum (in OCCO) was 361 nm.
For CN(C)c1ccc2nc(-c3ccc(C(=O)OC(C)(C)C)cc3)sc2c1, the absorption maximum (in C1CCCCC1) was 384 nm, the absorption maximum (in CC#N) was 390 nm and the absorption maximum (in CC(C)O) was 392 nm. The absorption maximum (in CO) was 393 nm, the absorption maximum (in CS(C)=O) was 403 nm and the absorption maximum (in ClC(Cl)Cl) was 392 nm. For the same molecule, the absorption maximum (in c1ccccc1) was 392 nm.
CC1=C(C#Cc2ccccc2)C(C)=[N+]2C1=C(c1ccccc1)c1c(C)c(C#Cc3ccccc3)c(C)n1[B-]2(F)F gave an absorption maximum (in C1CCOC1) of 573 nm and an absorption maximum (in ClCCl) of 561 nm.
For COc1ccc(-n2c(-c3ccc(-c4cncc5ccccc45)cc3)nc(-c3ccccc3)c2-c2ccccc2)cc1, the absorption maximum (in C1CCOC1) was 328 nm.
Work on C(=C(c1ccccc1)c1ccccc1)c1ccc(-c2cc(-c3ccc(C=C(c4ccccc4)c4ccccc4)cc3)c(-c3ccc(C=C(c4ccccc4)c4ccccc4)cc3)cc2-c2ccc(C=C(c3ccccc3)c3ccccc3)cc2)cc1 yielded an absorption maximum (in C1CCOC1) of 330 nm.
Work on COc1ccc(-c2ccc(-c3ccc(OC)cc3)cc2)cc1 yielded an absorption maximum (in C1CCCCC1) of 293 nm.
In the case of Fc1cc(-c2nc(-c3ccccc3)nc(-c3ccccc3)n2)ccc1-n1c2ccccc2c2c3c(ccc21)C1(c2ccccc2-c2ccccc21)c1ccccc1-3, the absorption maximum (in Cc1ccccc1) is reported as 370 nm.
COc1ccc(C(=O)NC(C)(C)C)c2c1ccc1c3ccccc3c3ccccc3c12 gave an absorption maximum (in ClCCl) of 334 nm.
O=C1c2ccc(-c3ccc(N(c4ccccc4)c4ccccc4)cc3)cc2C(=O)c2ccc(-c3ccc(N(c4ccccc4)c4ccccc4)cc3)cc21 gave an absorption maximum (in Cc1ccccc1) of 454 nm.
With O=C1c2ccc3c4c(NC5CCCCC5)cc5c6c(ccc(c7c(NC8CCCCC8)cc(c2c37)C(=O)N1C1CCCCC1)c64)C(=O)N(C1CCCCC1)C5=O the absorption maximum (in ClC(Cl)Cl) was 703 nm.
Work on CCC[n+]1ccc(/C=C/c2ccc(N(C)C)cc2)cc1 yielded an absorption maximum (in C1COCCO1) of 463 nm, an absorption maximum (in CC(C)O) of 485 nm and an absorption maximum (in CCCCO) of 490 nm. It also gave an absorption maximum (in CCCO) of 487 nm, an absorption maximum (in CCO) of 484 nm and an absorption maximum (in CO) of 479 nm. It also gave an absorption maximum (in CS(C)=O) of 476 nm, an absorption maximum (in ClC(Cl)Cl) of 496 nm and an absorption maximum (in ClCCl) of 513 nm. For the same molecule, the absorption maximum (in c1ccccc1) was 477 nm.
Cc1cccc2nc(-c3ccc(-c4cc(=O)cc(-c5ccccc5)o4)cc3)c(NC3CCCCC3)n12 gave an absorption maximum (in ClCCl) of 356 nm.
CC1=[N+]2C(=C(c3ccc(-c4c5ccccc5c(-c5ccccc5)c5ccccc45)cc3)c3ccc(C)n3[B-]2(F)F)C=C1 showed an absorption maximum (in CC#N) of 508 nm, an absorption maximum (in CCCCCC) of 512 nm and an absorption maximum (in CCO) of 511 nm. The absorption maximum (in CN(C)C=O) was 512 nm, the absorption maximum (in Cc1ccccc1) was 516 nm and the absorption maximum (in ClCCl) was 513 nm.
Work on c1ccc2c(c1)-c1ccccc1C21c2ccccc2-c2sc3c(c21)C1(c2ccccc2-c2ccccc21)c1ccccc1-3 yielded an absorption maximum (in C1CCOC1) of 373 nm.
Molecule COC(=O)c1nc2c(N(C)C)nc(N)nc2n1Cc1ccccc1 has an absorption maximum (in C1COCCO1) of 334 nm, an absorption maximum (in CC#N) of 332 nm and an absorption maximum (in CO) of 331 nm. For the same molecule, the absorption maximum (in ClCCl) was 330 nm.
Cc1ccc(-n2cccc2)cc1 gave an absorption maximum (in CC#N) of 254 nm and an absorption maximum (in CCCCCC) of 254 nm.
With O=c1oc2cc3ccccc3cc2nc1-c1ccccc1 the absorption maximum (in CC#N) was 348 nm, the absorption maximum (in CCCCCC) was 350 nm and the absorption maximum (in CO) was 346 nm. The absorption maximum (in c1ccccc1) was 356 nm.
Work on Oc1ccccc1-c1nc(-c2ccccc2)c2ccccn12 yielded an absorption maximum (in C1CCCCC1) of 340 nm, an absorption maximum (in CC#N) of 343 nm and an absorption maximum (in CO) of 299 nm. The absorption maximum (in ClCCl) was 345 nm and the absorption maximum (in O) was 299 nm.
Work on COCCOCCOCCOCC(COCCOCCOCCOC)Oc1cc(/C=C/c2ccc(/C=C(\C#N)C(=O)c3ccccc3)cc2)c(OC(COCCOCCOCCOC)COCCOCCOCCOC)cc1/C=C/c1ccc(/C=C(\C#N)C(=O)c2ccccc2)cc1 yielded an absorption maximum (in ClCCl) of 461 nm.
In the case of COc1ccc(-c2cnc(/C=C/c3ccc(OC)c(OC)c3)o2)cc1, the absorption maximum (in ClCCl) is reported as 360 nm.
With CCCC1=CC2=C(c3c(C)cc(C)cc3C)c3cc(CCC)c(-c4ccc5ccc6cccc7ccc4c5c67)n3[B-](F)(F)[N+]2=C1c1ccc2ccc3cccc4ccc1c2c34 the absorption maximum (in ClC(Cl)Cl) was 562 nm.
For CC1(C)c2ccccc2N(c2ccc(-c3cc(-c4ccccc4)nc(-c4ccccc4)n3)cc2)c2ccccc21, the absorption maximum (in Cc1ccccc1) was 374.95 nm.
With CN(C)c1ccc(-c2ccc(-c3cc(-c4ccccc4)c(-c4ccccc4)c(-c4ccccc4)c3-c3ccccc3)s2)cc1 the absorption maximum (in ClC(Cl)Cl) was 362 nm.
Molecule CCOC(=O)CCCCCn1c2ccc(N)cc2c(=O)c2cc3c(cc21)c(=O)c1cc(N)ccc1n3CCCCCC(=O)OCC has an absorption maximum (in ClCCl) of 574 nm.
Molecule N#Cc1ccc(/C=C2\N=C(c3ccccc3)NC2=O)cc1 has an absorption maximum (in C1COCCO1) of 393 nm.
With CCCCCCCCCCCCCCCCCCOC(=O)/C=C/C1=CC2=C(c3c(C)cc(C)cc3C)c3cc(/C=C/C(=O)OCCCCCCCCCCCCCCCCCC)cn3[B-](F)(F)[N+]2=C1 the absorption maximum (in ClCCl) was 578 nm.
Work on CN(C)CCN(Cc1c2ccccc2c(CN(CCN(C)C)c2ccc([N+](=O)[O-])cc2[N+](=O)[O-])c2ccccc12)c1ccc([N+](=O)[O-])cc1[N+](=O)[O-] yielded an absorption maximum (in C1CCCCC1) of 340 nm, an absorption maximum (in C1CCOC1) of 351 nm and an absorption maximum (in CC#N) of 347 nm. It also gave an absorption maximum (in CC(C)=O) of 352 nm, an absorption maximum (in CCO) of 341 nm and an absorption maximum (in CN(C)C=O) of 340 nm. For the same molecule, the absorption maximum (in CO) was 341 nm and the absorption maximum (in ClC(Cl)Cl) was 342 nm.
CCCCCCCCCCCCN1C(=O)c2c(c3ccc4cc(-c5ccc(C(F)(F)F)cc5)c(OC)cc4c3c3c2ccc2cc(-c4ccc(C(F)(F)F)cc4)c(OC)cc23)C1=O gave an absorption maximum (in ClCCl) of 427 nm.
For Cc1cc(C)c(-c2c3ccccc3c3ccc4cc5c(-c6c(C)cc(C)cc6C)c6ccccc6c6ccc7cc2c3c4c7c56)c(C)c1, the absorption maximum (in ClCCl) was 607 nm.
Work on CN(C)c1cccc(/C=C/c2ncc(-c3ccc(OCc4ccccc4)c(OCc4ccccc4)c3)o2)c1 yielded an absorption maximum (in ClCCl) of 350 nm.
For CN1C(=O)c2cccc3c(-n4c5ccccc5c5ccccc54)ccc(c23)C1=O, the absorption maximum (in C1CCOC1) was 408 nm, the absorption maximum (in CCCCCC) was 402 nm and the absorption maximum (in ClC(Cl)Cl) was 404 nm. The absorption maximum (in ClCCl) was 414 nm.
Work on O=C1C=C(Nc2ccc([N+](=O)[O-])cc2)C(=O)c2ccccc21 yielded an absorption maximum (in CO) of 451 nm.

Source: the Deep4Chem optical property database
